This is an account of results in US8754119B2, “Use of rotigotine for the treatment of depression” (priority 2003, dated 2014).

Entries after “also recorded” stand apart in the source; their conditions may differ.

Experiment [1] deals with a2 receptors. Description: binding to a2 receptors.
Experiment [2] has as its target T1, 5HT1A receptor (Homo sapiens, UniProt P08908).
T1 sequence (P08908 1-422): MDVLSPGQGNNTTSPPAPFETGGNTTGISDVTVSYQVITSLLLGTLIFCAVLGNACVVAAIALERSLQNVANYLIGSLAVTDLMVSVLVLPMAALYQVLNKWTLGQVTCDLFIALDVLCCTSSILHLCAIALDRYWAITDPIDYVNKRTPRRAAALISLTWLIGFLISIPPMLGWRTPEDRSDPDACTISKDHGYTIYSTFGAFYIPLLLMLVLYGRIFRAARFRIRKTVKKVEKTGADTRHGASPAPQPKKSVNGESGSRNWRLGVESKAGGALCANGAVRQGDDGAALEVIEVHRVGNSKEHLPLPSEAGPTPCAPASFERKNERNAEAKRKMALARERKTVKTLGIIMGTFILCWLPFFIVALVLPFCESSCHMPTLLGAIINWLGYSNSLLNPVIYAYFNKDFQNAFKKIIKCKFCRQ
Description: binding to 5HT1A receptor.

For experiment [3], the system named is a2 receptors. The experiment is described as follows: functional action on a2 receptors. The experiment is classed as biochemical.
For experiment [4], the target named is T1, 5HT1A receptor. Description: functional activity on 5HT1A receptors. The experiment is classed as biochemical.
The next experiment relates to rats. The experiment is described as follows: forced swim test. Type of experiment: in vivo. Conditions: subcutaneously applied. The source says:
The “forced swim test” is an animal model, in which depressive episodes are triggered by acute stress. In this case, rats are forced to swim in a limited space. After initial attempts to save themselves, in which the animals grasp the hopelessness, they lapse into immobility. On repetition of the experiment, the animals remain immobile from the beginning of the experiment. In the event of pre-treatment with antidepressants, the period of immobility is shortened during the repetition experiment; the animals generally start searching and escape movements directly after transfer into the water basin (Porsolt, Biomedicine 30, 1979, 139).

Another experiment has as its system Sprague-Dawley rats. Description: bulbectomy study (olfactory bulb removed, locomotor activity). The experiment is classed as in vivo. On the procedure:
In a further animal model (Embodiment 3) an investigation was made as to whether the antidepressive effects of rotigotine can be distinguished from a general motor stimulation. In this case, rotigotine was administered to rats, whose olfactory bulb had been removed on both sides. The removal of the olfactory bulb leads in the untreated control group to an adaptive hyperactivity. It is known from the literature that chronically administered antidepressants lead to a reduction in movement activity of the animals in this model, while stimulants further increase the motor activity (van Riezen H et al., Br. J. Pharmacol. 60(4), 1977, 521; Kelly J P et al., Pharmacol. Ther. 74(3), 1997, 299). Therefore, it is possible to discriminate between antidepressive and non-specific stimulatory effects of an active ingredient with this model. […] The bulbectomy study was carried out on Sprague-Dawley rats. A group, which had seemingly been operated on, served as a control group and was operated on without the olfactory bulb being removed. 14 days after the operation, the rats were treated with excipients, rotigotine depot suspension (every second day) or imipramine. On test days, the rats were taken onto a test field and left to themselves for 3 minutes. The locomotor activities of the animals were measured here with the aid of the number of lines crossed.

In the case of `CCCN(CCc1cccs1)C1CCc2c(O)cccc2C1` (single isomer, unassigned; (-)) [rotigotine, (−)-5,6,7,8-tetrahydro-6-[propyl[2-(2-thienyl)ethyl]amino]-1-naphthol], the “binding to a2 receptors” value with a2 receptors [1] is reported as “binds”. On 5HT1A receptor [2], the “binding to the 5HT1A receptor” value is given as “binds”. Moreover, in the experiment on a2 receptors [3], the “mode of action on a2 receptors” value is given as “acts antagonistically”. The “mode of action on 5HT1A receptors” value on 5HT1A receptor [4] is given as “agonistic activity”. For the same compound, the period of immobility result is on record as “clear reduction in the immobility period” in the experiment on rats and “significantly shortened period of immobility” with rats (listed as Rotigotine). Besides, the bulbectomy-induced locomotor hyperactivity entry in the experiment with Sprague-Dawley rats (bulbectomised rats, low doses) is recorded as “virtually complete suppression of the bulbectomy-induced locomotor hyperactivity; also recorded: significantly reduces the motor hyperactivity”. Besides, in the experiment on Sprague-Dawley rats (higher doses, bulbectomised and control animals), the locomotor activity result was “stimulatory dopamine-agonistic effect predominates; also recorded: non-specific activation of the locomotor activity dominates”.
